Measured values as given in US8809333B2, “Imidazole, pyrazole, and triazole derivatives useful as antibacterial agents” (Pfizer Inc., priority 2011, dated 2014).
≈ marks a conversion by molar mass, not a printed value. Read-outs that look alike come from different tables or passages of the source.

Key:
[1] = test system: Pseudomonas aeruginosa UI-18: Wild-type (PA-7); assay: MIC determination (CLSI), PA-7; format: cell-based; conditions: Pseudomonas aeruginosa UI-18 wild-type; overnight incubation; lower of duplicate values; read-out: PA-7 (MIC)
Description: (§1) The in vitro antibacterial activity of compounds described in the Examples was evaluated by minimum inhibitory concentration (MIC) testing according to Clinical and Laboratory Standards Institute (CLSI) Guidelines. See: Clinical and Laboratory Standards Institute. Methods for Dilution Antimicrobial Susceptibility Tests for Bacteria that Grow Aerobically; Approved Standard-Eighth Edition. CLSI document M7-A8 [ISBN 1-56238-689-1]. Clinical and Laboratory Standards Institute, 940 West Valley Road, Suite 1400, Wayne, Pa. 19087-1898 USA, 2006; also Clinical and Laboratory Standards Institute. Performance Standards for Antimicrobial Susceptibility Testing; Twentieth Informational Supplement. CLSI document M100-S20 [ISBN1-56238-716-2]. Clinical and Laboratory Standards Institute.
(§2) The MIC determination is a standard laboratory method for evaluating the antibacterial activity of a compound. The MIC represents the lowest drug concentration that inhibits visible growth of bacteria following overnight incubation. […] Typically, the drug concentration range is broken down into 2-fold increments (e.g. 0.06 μg/mL, 0.12 μg/mL. 0.25 μg/mL, 0.50 μg/mL, 1.0 μg/mL, etc.) and the various drug concentrations are all individually incubated overnight with approximately the same number of bacteria. The MIC is then determined by visually inspecting the drug effect at each concentration, and identifying the lowest drug concentration that has inhibited bacterial growth as compared to the drug free control. Typically, bacteria continue to grow at drug concentrations lower than the MIC and don't grow at concentrations at and above the MIC.
(§3) The MIC values described in Tables 2 and 3 below were derived from assays wherein each test compound was evaluated in duplicate. In cases where the duplicate values varied by 0-2-fold, the lower of the two values was reported below. Generally speaking, if the duplicate values varied by more than 2-fold, the assay was considered non-valid and was repeated until the variation between duplicate runs was ≦2-fold. In line with the CLSI guidelines referred to above, both control organisms and reference compounds were utilized in each MIC assay to provide proper quality control. MIC values generated with these control organisms and reference compounds were required to fall within a defined range for the assay to be considered valid and be included herein. Those skilled in the art will recognize that MIC values can and do vary from experiment to experiment. Generally speaking, it should be recognized that MIC values often vary +/−2-fold from experiment to experiment. While a single MIC is reported for each compound and each microorganism, the reader should not conclude that each compound was only tested once. Several of the compounds were subjected to multiple tests. The data reported in Tables 2 and 3 is reflective of the compounds relative activity and different MICs may have been generated on these occasions in line with the guidelines described above.
(§4) The following bacterial strains were used in these MIC determinations:
(4) Pseudomonas aeruginosa UI-18: Wild-type, labeled as PA-7 in Table 5;

[2] = test system: Acinetobacter baumannii/haemolyticus: Multidrug-resistant clinical isolate (AB-3167); assay: MIC determination (CLSI), AB-3167; format: cell-based; conditions: Acinetobacter baumannii/haemolyticus multidrug-resistant clinical isolate; overnight incubation; lower of duplicate values; read-out: AB-3167 (MIC)
Description: as §1, §2, §3, §4
(1) Acinetobacter baumannii/haemolyticus: Multidrug-resistant clinical isolate labeled as AB-3167 in Table 5;

[3] = test system: Escherichia coli EC-1: VOGEL, mouse virulent; assay: MIC determination (CLSI), EC-1; format: cell-based; conditions: Escherichia coli, read-out: EC-1 (MIC)
Description: as §1, §2, §3, §4
(2) Escherichia coli EC-1: VOGEL, mouse virulent labeled as EC-1 in Table 5;

[4] = test system: Klebsiella pneumoniae: Ciprofloxacin-resistant isolate, expresses ESBL, clinical isolate (KP-3700); assay: MIC determination (CLSI), KP-3700; format: cell-based; conditions: overnight incubation, lower of duplicate values
Description: as §1, §2, §3, §4
(3) Klebsiella pneumoniae: Ciprofloxacin-resistant isolate, expresses extended-spectrum beta-lactamases (ESBL), clinical isolate, labeled as KP-3700 in Table 5.

[5] = biological target: T1, Pseudomonas aeruginosa LpxC enzyme (Pseudomonas aeruginosa, UniProt P47205); assay: IC50 assay, LpxC enzyme from P. aeruginosa (BioTrove RapidFire mass spectrometry); format: biochemical
T1 construct: made in house; host or cells: E. coli
T1 sequence (P47205 1-303): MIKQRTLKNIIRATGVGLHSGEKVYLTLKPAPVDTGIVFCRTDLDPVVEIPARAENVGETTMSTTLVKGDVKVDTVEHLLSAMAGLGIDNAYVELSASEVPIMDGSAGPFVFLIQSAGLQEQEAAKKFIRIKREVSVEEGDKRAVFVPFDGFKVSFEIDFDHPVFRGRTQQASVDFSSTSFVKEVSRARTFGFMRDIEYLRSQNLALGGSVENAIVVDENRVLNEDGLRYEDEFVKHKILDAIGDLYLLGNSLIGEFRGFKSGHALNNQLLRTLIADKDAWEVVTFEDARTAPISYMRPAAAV
Description: In order to assess the compounds biological activity, selected in-vitro assays were conducted on selected compounds of Formula I. One of the assays measured the compounds ability to disrupt the synthesis of lipopolysaccharide, LPS, which is a component of the outer membrane of Gram-negative bacteria. Disruption of this synthesis is lethal to the bacteria. The assay determined the compound's ability to inhibit LpxC, which is the first enzyme in the biosynthetic pathway for LPS (measured as IC50). Additionally, MICs (minimal inhibitory concentrations) were determined for several bacteria. The specific protocols are described below:
A) IC50 Assay, LpxC Enzyme from P. Aeruginosa Labeled as PA LpxC Enzyme IC50):
At the end of 1 hour, 5 ul of 1 N HCl was added to stop the enzyme reaction, the plates were centrifuged, and then processed with the BioTrove Rapidfire HTMS Mass Spectrometry System. A no-enzyme control was used in calculating the IC50 values from the percent conversion values.

[6] = P. aeruginosa LpxC enzyme 0.1 nM, 25° C., 1 hour, pH 8.0, read-out: PA: IC50

| Compound | MIC [1] [µg/mL] | MIC [2] [µg/mL] | MIC [3] [µg/mL] | KP-3700 (MIC) [4] [µg/mL] | IC50 [5, 6] [nM] | IC50 [5] [nM] |
| --- | --- | --- | --- | --- | --- | --- |
| C[C@@](CCn1cnc(-c2ccccc2)c1)(C(=O)NO)S(C)(=O)=O (stereo in doubt) [Example 13, N-hydroxy-2-methyl-2-(methylsulfonyl)-4-(4-phenyl-1H-imidazol-1-yl)butanamide] | > 64 | > 64 | > 64 | >64.0 | – | – |
| C[C@@](CCn1cc(C2=CCCCC2)cn1)(C(=O)NO)S(C)(=O)=O [Example 1, (2R)-4-[4-(cyclohex-1-en-1-yl)-1H-pyrazol-1-yl]-N-hydroxy-2-methyl-2-(methylsulfonyl)butanamide] | 1 (≈ 2.93 µM) | > 64 | 8 (≈ 23.4 µM) | 16 | – | – |
| C[C@@](CCn1cc(C2CCCCC2)cn1)(C(=O)NO)S(C)(=O)=O [Example 2, (2R)-4-(4-cyclohexyl-1H-pyrazol-1-yl)-N-hydroxy-2-methyl-2-(methylsulfonyl)butanamide] | 1 (≈ 2.91 µM) | > 64 | 32 (≈ 93.2 µM) | 64 | 0.752 | – |
| C[C@@](CCn1cc(C2CCCC2)cn1)(C(=O)NO)S(C)(=O)=O [Example 3, (2R)-4-(4-cyclopentyl-1H-pyrazol-1-yl)-N-hydroxy-2-methyl-2-(methylsulfonyl)butanamide] | 8 (≈ 24.3 µM) | 64 (≈ 194 µM) | 64 (≈ 194 µM) | 64 | 14.3 | – |
| Cc1nn(CC[C@](C)(C(=O)NO)S(C)(=O)=O)cc1-c1ccccc1 [Example 4, (2R)—N-hydroxy-2-methyl-4-(3-methyl-4-phenyl-1H-pyrazol-1-yl)-2-(methylsulfonyl)butanamide] | 8 (≈ 22.8 µM) | > 64 | 8 (≈ 22.8 µM) | 32 | 14.6 | – |
| Cc1cnn(CC[C@](C)(C(=O)NO)S(C)(=O)=O)c1 [Example 5, (2R)—N-hydroxy-2-methyl-4-(4-methyl-1H-pyrazol-1-yl)-2-(methylsulfonyl)butanamide] | 32 (≈ 116 µM) | > 64 | > 64 | >64.0 | > 100 | – |
| C[C@@](CCn1cc(-c2ccccc2)cn1)(C(=O)NO)S(C)(=O)=O [Example 6, (2R)—N-hydroxy-2-methyl-2-(methylsulfonyl)-4-(4-phenyl-1H-pyrazol-1-yl)butanamide] | 1 (≈ 2.96 µM) | > 64 | 16 (≈ 47.4 µM) | 64 | – | 1.61 |
| C[C@@](CCn1cc(C#N)cn1)(C(=O)NO)S(C)(=O)=O [Example 7, (2R)-4-(4-cyano-1H-pyrazol-1-yl)-N-hydroxy-2-methyl-2-(methylsulfonyl)butanamide] | > 64 | > 64 | > 64 | >64.0 | 620 | – |
| C[C@@](CCn1cc(-c2cnccn2)cn1)(C(=O)NO)S(C)(=O)=O [Example 8, (2R)—N-hydroxy-2-methyl-2-(methylsulfonyl)-4-[4-(pyrazin-2-yl)-1H-pyrazol-1-yl]butanamide] | > 64 | > 64 | > 64 | >64.0 | > 100 | – |
| C[C@@](CCn1cc(-c2cnc3ccccc3n2)cn1)(C(=O)NO)S(C)(=O)=O [Example 9, (2R)—N-hydroxy-2-methyl-2-(methylsulfonyl)-4-[4-(quinoxalin-2-yl)-1H-pyrazol-1-yl]butanamide] | > 64 | > 64 | > 64 | >64.0 | 19 | – |
| C[C@@](CCn1cc(-c2nc3ccccc3o2)cn1)(C(=O)NO)S(C)(=O)=O [Example 10, (2R)-4-[4-(1,3-benzoxazol-2-yl)-1H-pyrazol-1-yl]-N-hydroxy-2-methyl-2-(methylsulfonyl)butanamide] | 32 (≈ 84.6 µM) | 32 (≈ 84.6 µM) | 32 (≈ 84.6 µM) | >64.0 | 13.8 | – |
| C[C@@](CCn1cc(C#Cc2cccc(C#N)c2)cn1)(C(=O)NO)S(C)(=O)=O [Example 11, (2R)-4-{4-[(3-cyanophenyl)ethynyl]-1H-pyrazol-1-yl}-N-hydroxy-2-methyl-2-(methylsulfonyl)butanamide] | 16 (≈ 41.4 µM) | > 64 | 32 (≈ 82.8 µM) | 64 | 12.1 | – |
| C[C@@](CCn1cc(-c2ccc(-c3ncco3)cc2)cn1)(C(=O)NO)S(C)(=O)=O [Example 12, (2R)—N-hydroxy-2-methyl-2-(methylsulfonyl)-4-{4-[4-(1,3-oxazol-2-yl)phenyl]-1H-pyrazol-1-yl}butanamide] | – | – | – | – | 0.963 | – |
| C[C@@](CCn1cc(-c2ccccc2)nn1)(C(=O)NO)S(C)(=O)=O [Example 14, (2R)—N-hydroxy-2-methyl-2-(methylsulfonyl)-4-(4-phenyl-1H-1,2,3-triazol-1-yl)butanamide] | 2 (≈ 5.91 µM) | > 64 | 32 (≈ 94.6 µM) | 32 | – | 0.85 |
| Cc1c(-c2ccccc2)nnn1CC[C@](C)(C(=O)NO)S(C)(=O)=O [Example 15, (2R)—N-hydroxy-2-methyl-4-(5-methyl-4-phenyl-1H-1,2,3-triazol-1-yl)-2-(methylsulfonyl)butanamide] | 32 (≈ 90.8 µM) | > 64 | > 64 | >64.0 | 21.3 | – |
| C[C@@](CCn1cc(-c2ccc(F)c(F)c2F)nn1)(C(=O)NO)S(C)(=O)=O [Example 18, (2R)-N-hydroxy-2-methyl-2-(methylsulfonyl)-4-[4-(2,3,4-trifluorophenyl)-1H-1,2,3-triazol-1-yl]butanamide] | – | – | – | – | 3.29 | – |
| CC(CCn1cc(CSc2ccc(Br)cc2)nn1)(C(=O)NO)S(C)(=O)=O (stereo not shown) [Example 25, 4-(4-{[(4-bromophenyl)sulfanyl]methyl}-1H-1,2,3-triazol-1-yl)-N-hydroxy-2-methyl-2-(methylsulfonyl)butanamide] | – | – | – | – | 10.1 | – |
| CC(CCn1cc(-c2cn(Cc3ccccc3)cn2)cn1)(C(=O)NO)S(C)(=O)=O (stereo not shown) [Example 83, 4-[4-(1-benzyl-1H-imidazol-4-yl)-1H-pyrazol-1-yl]-N-hydroxy-2-methyl-2-(methylsulfonyl)butanamide] | – | – | – | – | > 100 | – |
| CC(CCn1cc(-c2cn(-c3ccc(F)cc3)cn2)cn1)(C(=O)NO)S(C)(=O)=O (stereo not shown) [Example 89, 4-{4-[1-(4-fluorophenyl)-1H-imidazol-4-yl]-1H-pyrazol-1-yl}-N-hydroxy-2-methyl-2-(methylsulfonyl)butanamide] | – | – | – | – | > 100 | – |
